The values below come from patent US20250011299A1, “PYRIDAZINYL AMINO DERIVATIVES AS ALK5 INHIBITORS” (CHIESI FARMACEUTICI S.P.A., priority 2021, published 2025).

The target in the assay is T1, human ALK5 (Homo sapiens, UniProt P36897).
T1 construct: human ALK5 (recombinant TGF β1 N-term GST-tagged, 80-end); GST (N); purchased
T1 sequence (P36897 80-503 limits assumed): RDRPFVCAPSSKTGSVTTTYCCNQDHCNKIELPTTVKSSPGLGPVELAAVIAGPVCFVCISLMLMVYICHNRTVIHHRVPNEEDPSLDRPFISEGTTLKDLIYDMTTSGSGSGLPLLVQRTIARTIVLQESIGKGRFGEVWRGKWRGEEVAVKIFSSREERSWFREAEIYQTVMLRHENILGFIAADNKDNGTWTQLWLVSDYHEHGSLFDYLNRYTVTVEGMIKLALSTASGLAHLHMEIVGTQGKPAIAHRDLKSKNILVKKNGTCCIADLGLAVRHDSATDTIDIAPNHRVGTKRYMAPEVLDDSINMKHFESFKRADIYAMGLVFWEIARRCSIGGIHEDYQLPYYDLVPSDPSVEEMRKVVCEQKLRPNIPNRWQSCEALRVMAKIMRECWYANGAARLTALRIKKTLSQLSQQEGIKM
Description: ADP-GLO Kinases assay of ALK5 enzymatic activity. Particulars: purified recombinant human ALK5, TGFβ1 peptide substrate, pIC50 converted to pKi by Cheng-Prusoff, high ATP protocol (15 μM) for very potent compounds, 25° C. The assay is classed as biochemical. The essentials: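 Purified ALK5 preincubated 15 min with compound, then reacted with substrate and ATP; ADP formed read by ADP-Glo luminescence after 120 min or 60 min reaction, all steps at 25° C. 11-point concentration-response; pIC50 converted to pKi via Cheng-Prusoff.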

Some results are limits rather than exact numbers.

For orientation: Ki means the dissociation constant of the complex between target and ligand, obtained from inhibition or displacement. As to `CN1CCN(CCC(=O)Nc2cc(Nc3cc(-c4cc(Cl)ccc4F)nnc3N(C)CC3(CO)CCOC3=O)ccn2)CC1` (stereo not shown) [Example 152, N-(4-{[6-(5-chloro-2-fluorophenyl)-3-({[3-(hydroxymethyl)-2-oxooxolan-3-yl]methyl}(methyl)amino)pyridazin-4-yl]amino}pyridin-2-yl)-3-(4-methylpiperazin-1-yl)propanamide], the Ki is no more than 0.1 nM.
Next, `CN1CCN([C@H]2C[C@@H](C(=O)Nc3cc(Nc4cc(-c5cc(Cl)ccc5F)nnc4SCCO)ccn3)C2)CC1` [Example 83, Cis N-(4-{[6-(5-chloro-2-fluorophenyl)-3-[(2-hydroxyethyl)sulfanyl]pyridazin-4-yl]amino}pyridin-2-yl)-3-(4-methylpiperazin-1-yl)cyclobutane-1-carboxamide]: no more than 0.1 nM; `CN1CCN(CC23CC(C(=O)Nc4cc(Nc5cc(-c6cc(Cl)ccc6F)nnc5SCCO)ncn4)(C2)C3)CC1` [Example 182, N-(6-{[6-(5-chloro-2-fluorophenyl)-3-[(2-hydroxyethyl)sulfanyl]pyridazin-4-yl]amino}pyrimidin-4-yl)-3-[(4-methylpiperazin-1-yl)methyl]bicyclo[1.1.1]pentane-1-carboxamide]: 0.126 to 0.316 nM.
Next, `CN1CCN(CCC(=O)Nc2cc(Nc3cc(-c4cc(Cl)ccc4F)nnc3N(C)CC3(C)CCOC3=O)ncn2)CC1` (single isomer, unassigned; enantiomer 1) [Example 138, Enantiomer 1 N-(6-{[6-(5-chloro-2-fluorophenyl)-3-{methyl[(3-methyl-2-oxooxolan-3-yl)methyl]amino}pyridazin-4-yl]amino}pyrimidin-4-yl)-3-(4-methylpiperazin-1-yl)propanamide]: no more than 0.1 nM; `CN(C)CCOc1nnc(-c2cc(Cl)ccc2F)cc1Nc1ccnc2[nH]ncc12` [Example 42, 6-(5-chloro-2-fluorophenyl)-3-[2-(dimethylamino)ethoxy]-N-{1H-pyrazolo[3,4-b]pyridin-4-yl}pyridazin-4-amine]: 0.398 to 3.16 nM.
Under `CN(C)CCOc1nnc(-c2cc(Cl)ccc2F)cc1Nc1ccnc(NC(=O)C2CC2)c1` [Example 38, N-(4-{[6-(5-chloro-2-fluorophenyl)-3-[2-(dimethylamino)ethoxy]pyridazin-4-yl]amino}pyridin-2-yl)cyclopropanecarboxamide] stands no more than 0.1 nM; under `COC(=O)C1CN(c2nnc(-c3cc(Cl)ccc3F)cc2Nc2ccnc(NC(=O)CN3C[C@@H]4C[C@H]3CN4C)c2)C1` [Example 109, methyl 1-[6-(5-chloro-2-fluorophenyl)-4-[(2-{2-[(1S,4S)-5-methyl-2,5-diazabicyclo[2.2.1]heptan-2-yl]acetamido}pyridin-4-yl)amino]pyridazin-3-yl]azetidine-3-carboxylate], no more than 0.1 nM.
As for `COCCOc1nnc(-c2cc(Cl)ccc2F)cc1Nc1ccnc(NC(=O)CCN2CCN(CC(F)(F)F)CC2)c1` [Example 33, N-(4-{[6-(5-chloro-2-fluorophenyl)-3-(2-methoxyethoxy)pyridazin-4-yl]amino}pyridin-2-yl)-3-[4-(2,2,2-trifluoroethyl)piperazin-1-yl]propanamide], the Ki is no more than 0.1 nM.
Next, `CN1CCN(CCC(=O)Nc2cc(Nc3cc(-c4cc(Cl)ccc4F)nnc3OCCNS(C)(=O)=O)ccn2)CC1` [Example 9, N-(4-{[6-(5-chloro-2-fluorophenyl)-3-(2-methanesulfonamidoethoxy)pyridazin-4-yl]amino}pyridin-2-yl)-3-(4-methylpiperazin-1-yl)propanamide]: no more than 0.1 nM.
Next, `CC(C)OC(=O)C1CCN1c1nnc(-c2cc(Cl)ccc2F)cc1Nc1ccnc(NC(=O)CCN2C[C@@H](C)N[C@@H](C)C2)c1` (mixture of isomers) [Example 184, propan-2-yl 1-[6-(5-chloro-2-fluorophenyl)-4-({2-[3-(3,5-dimethylpiperazin-1-yl)propanamido]pyridin-4-yl}amino)pyridazin-3-yl]azetidine-2-carboxylate]: 0.398 to 3.16 nM.
Turning to `CN1CCN(CCC(=O)Nc2cc(Nc3cc(-c4cc(Cl)ccc4F)nnc3N(C)CC3(C)CCOC3=O)ncn2)CC1` (racemic) [Example 137, N-(6-{[6-(5-chloro-2-fluorophenyl)-3-{methyl[(3-methyl-2-oxooxolan-3-yl)methyl]amino}pyridazin-4-yl]amino}pyrimidin-4-yl)-3-(4-methylpiperazin-1-yl)propanamide], the Ki is no more than 0.1 nM.
Under `CN1CCN(CCC(=O)Nc2cc(Nc3cc(-c4cc(Cl)ccc4F)nnc3N3CC(CO)C3)ccn2)CC1` [Example 95, N-(4-{[6-(5-chloro-2-fluorophenyl)-3-[3-(hydroxymethyl)azetidin-1-yl]pyridazin-4-yl]amino}pyridin-2-yl)-3-(4-methylpiperazin-1-yl)propanamide] stands no more than 0.1 nM.
Under `CN1CC2CCC1CN(CC(=O)Nc1cc(Nc3cc(-c4cc(Cl)ccc4F)nnc3SCCO)ccn1)C2` (stereo not shown) [Example 82, N-(4-{[6-(5-chloro-2-fluorophenyl)-3-[(2-hydroxyethyl)sulfanyl]pyridazin-4-yl]amino}pyridin-2-yl)-2-{6-methyl-3,6-diazabicyclo[3.2.2]nonan-3-yl}acetamide] stands no more than 0.1 nM; under `CNc1nnc(-c2cc(Cl)ccc2F)cc1Nc1ccnc(NC(=O)CCN2CCN(C)CC2)c1` [Example 29], no more than 0.1 nM; under `CN1CCN(CCC(=O)Nc2cc(Nc3cc(-c4cc(Cl)ccc4F)nnc3N(C)[C@H]3CCOC3)ccn2)CC1` (single isomer, unassigned) [Example 106, N-(4-{[6-(5-chloro-2-fluorophenyl)-3-[methyl(oxolan-3-yl)amino]pyridazin-4-yl]amino}pyridin-2-yl)-3-(4-methylpiperazin-1-yl)propanamide], 0.126 to 0.316 nM.
Next, `C[C@@H]1CN(CC(=O)Nc2cc(Nc3cc(-c4cc(Cl)ccc4F)nnc3SCCO)ccn2)C[C@H](C)N1` [Example 193, N-(4-{[6-(5-chloro-2-fluorophenyl)-3-[(2-hydroxyethyl)sulfanyl]pyridazin-4-yl]amino}pyridin-2-yl)-2-(3,5-dimethylpiperazin-1-yl)acetamide]: no more than 0.1 nM; `COCC1(CN(C)c2nnc(-c3cc(Cl)ccc3F)cc2Nc2ccnc(NC(=O)CCN3CCN(C)CC3)c2)CCOC1=O` (single isomer, unassigned) [Example 201, N-(4-{[6-(5-chloro-2-fluorophenyl)-3-({[3-(methoxymethyl)-2-oxooxolan-3-yl]methyl}(methyl)amino)pyridazin-4-yl]amino}pyridin-2-yl)-3-(4-methylpiperazin-1-yl)propanamide]: no more than 0.1 nM; `CN1CCN(CCC(=O)Nc2cc(Nc3cc(-c4cc(Cl)ccc4F)nnc3N3CCC3C(=O)O)ccn2)CC1` (stereo not shown) [Example 151, ammonium 1-[6-(5-chloro-2-fluorophenyl)-4-({2-[3-(4-methylpiperazin-1-yl)propanamido]pyridin-4-yl}amino)pyridazin-3-yl]azetidine-2-carboxylate]: 0.398 to 3.16 nM.
Turning to `CC(C)OC(=O)C1CCN1c1nnc(-c2cc(Cl)ccc2F)cc1Nc1ccnc(NC(=O)CCN2CCN(C)CC2)c1` (racemic) [Example 150, propan-2-yl 1-[6-(5-chloro-2-fluorophenyl)-4-({2-[3-(4-methylpiperazin-1-yl)propanamido]pyridin-4-yl}amino)pyridazin-3-yl]azetidine-2-carboxylate], the Ki was 0.398 to 3.16 nM.
